Test results published in ChEMBL document CHEMBL3862038, “When Does Chemical Elaboration Induce a Ligand To Change Its Binding Mode?” (J Med Chem, 2017).

Biological target: Heat shock protein HSP90 (Homo sapiens, UniProt P07900+P08238)
Assay: Inhibition of HSP90 (unknown origin)

- Kd: 800 µM
SMILES: COc1cccc(C(=O)NC2CCC3CCC(C2)N3c2ccc(C(=O)NCc3ccccc3)cc2)c1C (stereo unspecified)
